Molecular target: Vasopressin V1 receptor (Homo sapiens, UniProt P37288+P47901)
Assay: Compound was evaluated for antagonistic activity against vasopressin V1 receptor
Assay type: functional

IC50 [nM] | SMILES
600 | CC(=O)NC(O)CCOc1ccc(C(=O)N2CCC(N3C(=O)CCc4ccccc43)CC2)cc1 (stereo not drawn)
3300 | CC(=O)NC(O)CCOc1ccc(C(=O)N2CCC(n3c(=O)ccc4ccccc43)CC2)cc1 (stereo not drawn)

SMILES | IC50 [nM]
CC(=O)NCCCOc1ccc(C(=O)N2CCC(N3C(=O)CCc4ccccc43)CC2)cc1 | 440

Source: ChEMBL document CHEMBL1126531, “Synthesis of N-Acetylhemiaminal metabolites of opc-21268, vasopressin V1 receptor antagonist” (Bioorg Med Chem Lett, 1993)
